For one assay, the system named is auxin signaling mutants. Description: Effect of activators on lateral root density of auxin signaling mutants (Table 2). The format is in vivo, Arabidopsis thaliana. An excerpt:
Afb1, Afb2, Afb3 and the triple mutant Tirlafb2afb3 were described by Dhamasiri et al. (2005). Tir1 was described by Ruegger et al., (1998); 1aa28 by Rogg et al., (2001); Tir7-1 by Ruegger et al., (1997); the Cyp79b2b3 double mutant by Ljung et al. (2005); the arf7arf19 double mutant by Fukaki et al., (2005); Aux1 by Bennett et al., (1996); Xbat32 by Nodzon et al., (2004), Axr1-12 by Timpte et al., (1995), Slr1 by Fukaki et al., 2002 and Axr3-1 by Collet et al., (2000) and the mutants were obtained from the publishing authors.
For phenotypic analysis, all mutants were grown on vertically oriented square plates (Greiner Labortechnik, Austria) with solid medium derived from standard MS medium. The plates were put in a growth chamber under continuous light (110 μE.m2.s1 photosynthetically active radiation, supplied by cool-white fluorescent tungsten tubes; Osram) at 22° C. Three days after germination, the mutant plants were transferred to medium supplemented with compounds and were left to grow for another 7 days. After this, root length and number of lateral roots were counted using ImageJ 1.34 freeware.

Assay [1] has as its system Wild-type Arabidopsis thaliana. The assay is described as follows: Dose-response analysis of lateral root density and root length. The format is in vivo. As to conditions: structural variants, FIG. 6-8. The procedure:
FIG. 3: Dose-response analysis of class 1 (upper panel) and class 2 (lower panel) activators. Wild-type Arabidopsis thaliana seeds were germinated under standard conditions on agar plates. After 3 days of germination, seedlings were transferred to agar plates containing compound at different concentrations. Lateral root density was measured 10 days after germination. Bars represent standard errors.
FIG. 4: Dose-response analysis of A2, A11, A12, A14 and NAA. Wild-type Arabidopsis thaliana seeds were germinated under standard conditions on agar plates. After 3 days of germination, seedlings were transferred to agar plates containing compound at different concentrations and 1% DMSO. Plants transferred to agar plates containing 1% DMSO and no compound were used as controls. Lateral root density (left panels) and root length (right panels) were measured 10 days after germination. Bars represent standard errors.
For further phenotypic analysis, all plants were grown on vertically oriented square plates (Greiner Labortechnik, Austria) with solid medium derived from standard MS medium under the same conditions. 3 DAG plants were transferred to medium supplemented with compounds and were left to grow for another 7 days. After this, root length and number of LRs were counted using ImageJ 1.34 freeware.
As a subsequent step, the phenotypic effect of the 16 selected activators was determined in a dose-response analysis in which LR density (number of LRs per cm) was quantified (FIG. 3). Based upon potency and structure, two different classes of activators could be identified.

Turning to `Clc1cccc(C=Nc2ccc(N3CCOCC3)cc2)c1Cl` [A4, (2,3-dichlorobenzylidene)[4-(4-morpholinyl)phenyl]amine], the lateral root density in the assay with auxin signaling mutants (Afb1-1, 3 uM) stood at 2.69 LR/cm; in the assay with auxin signaling mutants (Afb2-1, 3 uM) it was 2.16 LR/cm; in the assay with auxin signaling mutants (Afb3-1, 3 uM), 2.55 LR/cm; with auxin signaling mutants (Arf7Arf19, 3 uM), 0.00 LR/cm; in the assay with auxin signaling mutants (Arf16, 3 uM), 1.99 LR/cm; in the assay with auxin signaling mutants (Arf17, 3 uM), 1.87 LR/cm. The lateral root density came out at 1.64 LR/cm in the assay with auxin signaling mutants (Axrt-12, 3 uM); 2.64 LR/cm with auxin signaling mutants (Cyp79, 3 uM); 0.00 LR/cm in the assay on auxin signaling mutants (Iaa28-1, 3 uM); 0.89 LR/cm in the assay with auxin signaling mutants (Tir1-1, 3 uM); 3.69 LR/cm in the assay with auxin signaling mutants (Tir7-1, 3 uM); 0.00 LR/cm with auxin signaling mutants (TirTM, 3 uM). Moreover, the lateral root density in the assay on auxin signaling mutants (Xbat32, 3 uM) is on record as 0.91 LR/cm.

For the compound `Cc1ccccc1OCC(=O)NN=Cc1ccc(C(=O)O)cc1` [A9, 4-{2-[(2-methylphenoxy)acetyl]carbonohydrazonoyl}benzoic acid], the lateral root density was found to be 13.57 LR/cm in the assay with auxin signaling mutants (Afb1-1, 30 uM); 11.19 LR/cm with auxin signaling mutants (Afb2-1, 30 uM); 16.77 LR/cm in the assay with auxin signaling mutants (Afb3-1, 30 uM); 0.25 LR/cm with auxin signaling mutants (Arf7Arf19, 30 uM); 6.67 LR/cm in the assay on auxin signaling mutants (Arf16, 30 uM); 12.86 LR/cm in the assay with auxin signaling mutants (Arf17, 30 uM). In addition, the lateral root density turned out to be 6.09 LR/cm with auxin signaling mutants (Axrt-12, 30 uM); 13.29 LR/cm with auxin signaling mutants (Cyp79, 30 uM); 12.33 LR/cm in the assay on auxin signaling mutants (Iaa28-1, 30 uM); 3.29 LR/cm in the assay with auxin signaling mutants (Tir1-1, 30 uM); 17.91 LR/cm in the assay on auxin signaling mutants (Tir7-1, 30 uM); 0.00 LR/cm in the assay on auxin signaling mutants (TirTM, 30 uM). In addition, the lateral root density in the assay with auxin signaling mutants (Xbat32, 30 uM) was determined as 8.43 LR/cm.

Turning to `Nc1ncc(Cc2cccc(Cl)c2Cl)s1` [A3, 5-(2,3-dichlorobenzyl)-1,3-thiazol-2-amine], the lateral root density with auxin signaling mutants (Afb1-1, 3 uM) came to 17.77 LR/cm; in the assay on auxin signaling mutants (Afb2-1, 3 uM) it was 19.58 LR/cm; in the assay with auxin signaling mutants (Afb3-1, 3 uM) it was 17.45 LR/cm; with auxin signaling mutants (Arf7Arf19, 3 uM) it was 33.59 LR/cm; with auxin signaling mutants (Arf16, 3 uM) it was 11.32 LR/cm; in the assay with auxin signaling mutants (Arf17, 3 uM), 13.31 LR/cm. The lateral root density is reported as 15.77 LR/cm in the assay on auxin signaling mutants (Axrt-12, 3 uM); 21.24 LR/cm in the assay on auxin signaling mutants (Cyp79, 3 uM); 13.96 LR/cm with auxin signaling mutants (Iaa28-1, 3 uM); 11.91 LR/cm in the assay with auxin signaling mutants (Tir1-1, 3 uM); 26.15 LR/cm in the assay on auxin signaling mutants (Tir7-1, 3 uM); 10.88 LR/cm in the assay with auxin signaling mutants (TirTM, 3 uM). The compound also came in with a lateral root density with auxin signaling mutants (Xbat32, 3 uM) of 13.07 LR/cm.

In the case of `Cc1c(N=Cc2cccc(Cl)c2Cl)cccc1[N+](=O)[O-]` [A7, (2,3-dichlorobenzylidene)(2-methyl-3-nitrophenyl)amine], the lateral root density in the assay with auxin signaling mutants (Afb1-1, 3 uM) worked out at 9.46 LR/cm; in the assay with auxin signaling mutants (Afb2-1, 3 uM) it was 2.69 LR/cm; in the assay with auxin signaling mutants (Afb3-1, 3 uM) it was 17.43 LR/cm; in the assay with auxin signaling mutants (Arf7Arf19, 3 uM), 0.00 LR/cm; with auxin signaling mutants (Arf16, 3 uM) it was 2.71 LR/cm; with auxin signaling mutants (Arf17, 3 uM), 3.40 LR/cm. Also, the lateral root density worked out at 2.02 LR/cm in the assay on auxin signaling mutants (Axrt-12, 3 uM); 19.35 LR/cm in the assay on auxin signaling mutants (Cyp79, 3 uM); 0.00 LR/cm with auxin signaling mutants (Iaa28-1, 3 uM); 1.01 LR/cm in the assay on auxin signaling mutants (Tir1-1, 3 uM); 5.73 LR/cm in the assay on auxin signaling mutants (Tir7-1, 3 uM); 0.00 LR/cm in the assay with auxin signaling mutants (TirTM, 3 uM). The compound further had a lateral root density in the assay with auxin signaling mutants (Xbat32, 3 uM) of 1.23 LR/cm.

For the compound `O=C(NN=Cc1cccc(Cl)c1Cl)c1ccc(O)c(O)c1` [A6, N′-(2,3-dichlorobenzylidene)-3,4-dihydroxybenzohydrazide], the lateral root density with auxin signaling mutants (Afb1-1, 3 uM) was 10.89 LR/cm; in the assay with auxin signaling mutants (Afb2-1, 3 uM) it was 7.34 LR/cm; in the assay with auxin signaling mutants (Afb3-1, 3 uM), 14.40 LR/cm; in the assay on auxin signaling mutants (Arf7Arf19, 3 uM) it was 0.00 LR/cm; in the assay with auxin signaling mutants (Arf16, 3 uM), 6.67 LR/cm; in the assay on auxin signaling mutants (Arf17, 3 uM), 7.24 LR/cm. The lateral root density in the assay on auxin signaling mutants (Axrt-12, 3 uM) is given as 4.78 LR/cm; with auxin signaling mutants (Cyp79, 3 uM), 31.92 LR/cm; in the assay with auxin signaling mutants (Iaa28-1, 3 uM) it was 0.00 LR/cm; in the assay with auxin signaling mutants (Tir1-1, 3 uM), 0.57 LR/cm; with auxin signaling mutants (Tir7-1, 3 uM) it was 11.42 LR/cm; in the assay on auxin signaling mutants (TirTM, 3 uM), 0.00 LR/cm. The compound also gave a lateral root density in the assay with auxin signaling mutants (Xbat32, 3 uM) of 10.08 LR/cm.

On to `O=Cc1ccc(-c2cccc(C(F)(F)F)c2)o1` [A11var5], for which the “effect on LR formation (LR density), structure-activity analysis” value in assay [1] is “minimal substructure required to induce LR formation”.

The values are drawn from patent publication US8486863B2, “Activators of lateral root formation” (VIB VZW, priority 2006, dated 2013).
